Values quoted from earlier work, collected in article PMC9127185, “A Pyridazinone Compound for Effectively Treating Non-alcoholic Steatohepatitis by Targeting THRβ” (Frontiers in Chemistry, 2022).

Set-up: method as in Harrison et al., 2019
Settings: ref Harrison et al., 2019; cited from earlier work

In the case of CC(C)c1cc(Oc2c(Cl)cc(-n3nc(C#N)c(=O)[nH]c3=O)cc2Cl)n[nH]c1=O [resmetirom, 2-[3,5-Dichloro-4-(5-Isopropyl-6-Oxo-1,6-Dihydropyridazin-3-Yloxy)phenyl]-3,5-Dioxo-2,3,4,5-Tetrahydro[1,2,4]triazine-6-Carbonitrile], the Distribution is given as “liver-specific distribution” and the “Effect on low density lipoprotein and triglyceride” value is given as “reduced both low density lipoprotein and triglyceride effectively”.
